The source of these data is patent US10975119B2, “Selective cysteine protease inhibitors and uses thereof” (Genesis Technologies Limited, priority 2011, dated 2021).

Holding throughout (assay type): biochemical
The target in assay [1] is T1, Caspase-1 (Homo sapiens, UniProt P29466).
T1 construct: mixing the compounds with the respective active caspases; purchased BioVision K151-100
T1 sequence (P29466 120-297 limits assumed): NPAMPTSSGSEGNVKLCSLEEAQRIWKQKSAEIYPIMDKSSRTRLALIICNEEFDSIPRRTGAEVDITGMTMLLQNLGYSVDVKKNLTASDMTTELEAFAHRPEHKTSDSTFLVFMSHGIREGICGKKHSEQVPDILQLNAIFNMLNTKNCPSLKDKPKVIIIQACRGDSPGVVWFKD
T1 sequence (P29466 317-404 limits assumed): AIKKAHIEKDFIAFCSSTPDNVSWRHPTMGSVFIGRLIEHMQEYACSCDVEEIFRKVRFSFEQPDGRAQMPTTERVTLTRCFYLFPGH
As to the kind of experiment: Caspase-1 inhibitor screening assay (BioVision kit, YVAD-AFC). To be noted: for inhibition at 10 µM: read-out: % Inhibition at 10 uM Casp1; for inhibition at 100 µM: read-out: % Inhibition at 100 uM Casp1; for IC50: read-out: IC50 Casp1. The procedure, abridged: (§1)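 Fluorometric read-out of free AFC released from the caspase-specific synthetic substrate. IC50 from concentration series, sometimes narrower.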

Assay [2] has as its target T2, Caspase-8 (Homo sapiens, UniProt Q14790).
T2 construct: mixing the compounds with the respective active caspases; purchased BioVision K158-100
As to the kind of experiment: Caspase-8 inhibitor screening assay (BioVision kit, IETD-AFC). To be noted: for inhibition at 10 µM: read-out: % Inhibition at 10 uM Casp8; for inhibition at 100 µM: read-out: % Inhibition at 100 uM Casp8; for IC50: read-out: IC50 Casp8. The procedure, abridged: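 Each caspase cleaved its own AFC-labelled peptide substrate, and released AFC was read by fluorescence. % inhibition came from RFU against an uninhibited control.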

For assay [3], the target named is T3, Caspase-3 (Homo sapiens, UniProt P42574).
T3 construct: mixing the compounds with the respective active caspases; purchased BioVision K153-100
T3 sequence (P42574 29-175 limits assumed): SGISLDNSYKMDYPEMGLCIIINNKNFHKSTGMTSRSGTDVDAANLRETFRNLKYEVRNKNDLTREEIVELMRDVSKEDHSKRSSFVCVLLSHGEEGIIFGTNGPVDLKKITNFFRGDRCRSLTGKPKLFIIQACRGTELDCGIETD
T3 sequence (P42574 176-277 limits assumed): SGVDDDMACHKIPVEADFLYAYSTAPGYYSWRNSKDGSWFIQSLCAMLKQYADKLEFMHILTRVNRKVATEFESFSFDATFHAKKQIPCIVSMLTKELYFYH
Put plainly: Caspase-3 inhibitor screening assay (BioVision kit, DEVD-AFC). The conditions noted are these: for inhibition at 10 µM: read-out: % Inhibition at 10 uM Casp3; for inhibition at 100 µM: read-out: % Inhibition at 100 uM Casp3; for IC50: read-out: IC50 Casp3. The procedure, abridged: as §1

The target in assay [4] is T4, Caspase-9 (Homo sapiens, UniProt P55211).
T4 construct: purchased BioVision K159-100
T4 sequence (P55211 1-315 limits assumed): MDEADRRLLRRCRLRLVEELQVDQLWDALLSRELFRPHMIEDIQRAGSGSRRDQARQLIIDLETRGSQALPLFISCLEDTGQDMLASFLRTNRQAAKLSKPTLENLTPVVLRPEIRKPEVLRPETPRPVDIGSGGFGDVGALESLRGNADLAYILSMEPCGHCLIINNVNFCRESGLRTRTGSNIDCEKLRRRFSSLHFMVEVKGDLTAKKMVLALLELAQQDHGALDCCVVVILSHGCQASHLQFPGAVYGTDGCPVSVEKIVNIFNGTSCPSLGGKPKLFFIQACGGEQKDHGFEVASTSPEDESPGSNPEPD
T4 sequence (P55211 331-416 limits assumed): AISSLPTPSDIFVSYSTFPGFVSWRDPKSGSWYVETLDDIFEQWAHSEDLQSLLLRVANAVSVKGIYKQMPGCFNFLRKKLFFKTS
As to the kind of experiment: Caspase-9 inhibitor screening assay (BioVision kit, LEHD-AFC). To be noted: for inhibition at 10 µM: read-out: % Inhibition at 10 uM Casp9; for inhibition at 100 µM: read-out: % Inhibition at 100 uM Casp9; for IC50: read-out: IC50 Casp9. The method in brief: as §1

The target of assay [5] is T5, Caspase-7 (Homo sapiens, UniProt P55210).
T5 construct: mixing the compounds with the respective active caspases; purchased BioVision K157-100
T5 sequence (P55210 24-198 limits assumed): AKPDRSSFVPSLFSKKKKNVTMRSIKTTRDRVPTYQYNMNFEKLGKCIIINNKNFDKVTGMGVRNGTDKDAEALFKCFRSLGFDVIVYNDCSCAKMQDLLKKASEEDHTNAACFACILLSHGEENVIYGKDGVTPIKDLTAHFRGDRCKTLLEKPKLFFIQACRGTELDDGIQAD
T5 sequence (P55210 207-303 limits assumed): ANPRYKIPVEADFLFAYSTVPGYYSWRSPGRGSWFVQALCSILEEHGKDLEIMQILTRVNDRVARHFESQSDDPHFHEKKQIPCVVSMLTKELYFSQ
Put plainly: Caspase-7 inhibitor screening assay (BioVision kit, DEVD-AFC). The conditions noted are these: for inhibition at 10 µM: read-out: % Inhibition at 10 uM Casp7; for inhibition at 100 µM: read-out: % Inhibition at 100 uM Casp7; for IC50: read-out: IC50 Casp7. The method in brief: as §1

Assay [6] deals with T6, Caspase-2 (Homo sapiens, UniProt P42575).
T6 construct: mixing the compounds with the respective active caspases; purchased BioVision K152-100
T6 sequence (P42575 170-325 limits assumed): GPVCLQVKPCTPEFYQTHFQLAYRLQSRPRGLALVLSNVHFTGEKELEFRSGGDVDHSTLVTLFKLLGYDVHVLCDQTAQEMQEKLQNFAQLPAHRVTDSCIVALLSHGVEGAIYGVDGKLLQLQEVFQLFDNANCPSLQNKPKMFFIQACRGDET
T6 sequence (P42575 334-452 limits assumed): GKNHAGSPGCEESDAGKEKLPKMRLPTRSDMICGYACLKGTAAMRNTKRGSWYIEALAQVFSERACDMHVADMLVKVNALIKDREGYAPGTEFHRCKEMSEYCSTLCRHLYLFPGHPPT
As to the kind of experiment: Caspase-2 inhibitor screening assay (BioVision kit, VDVAD-AFC). To be noted: for inhibition at 10 µM: read-out: % Inhibition at 10 uM Casp2; for inhibition at 100 µM: read-out: % Inhibition at 100 uM Casp2; for IC50: read-out: IC50 Casp2. As to the method: The efficacy of an array of compounds as an inhibitor of the activity of Caspases 1 through 10 were assessed by using the respective Caspase Inhibitor Drug Screening Kits (Caspase-1 Catalog #: K151-100, Caspase-2 Catalog #: K152-100, Caspase-3 Catalog #: K153-100, Caspase-4 Catalog #: K154-100, Caspase-5 Catalog #: K155-100, Caspase-6 Catalog #: K156-100, Caspase-7 Catalog #: K157-100, Caspase-8 Catalog #: K158-100, Caspase-9 Catalog #: K159-100, Caspase-10 Catalog #: K160-100, BioVision) following the instructions of the manufacturer. […] Active caspases cleaved their respective synthetic substrates to release free AFC, which was then quantified by fluorometry.
Briefly, the compounds were first tested at 2 concentrations (10 uM and 100 uM final) to determine if there is a hit. […] Each condition was tested in duplicates. […] For some samples, a smaller range of concentrations was tested depending on the % Inhibition results at 10 uM and 100 uM. Results were summarized in Tables 2, 3, and 4 herein after. Table 2 represents the IC50 values (uM) of the test compounds as inhibitors of the activity of the various caspases.
(*) RFU (no inhibitor control)—RFU (compound at a specific concentration)
RFU (no inhibitor control)

T2 sequence (Q14790 217-374 limits assumed): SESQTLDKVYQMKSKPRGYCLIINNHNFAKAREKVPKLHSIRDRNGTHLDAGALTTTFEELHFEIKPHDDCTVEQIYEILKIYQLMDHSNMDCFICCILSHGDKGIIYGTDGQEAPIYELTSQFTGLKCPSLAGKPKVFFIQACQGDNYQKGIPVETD
T2 sequence (Q14790 385-479 limits assumed): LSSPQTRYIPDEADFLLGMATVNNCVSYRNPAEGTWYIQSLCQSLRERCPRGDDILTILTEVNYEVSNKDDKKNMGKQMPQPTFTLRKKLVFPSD

As to `CS(=O)(=O)/C=C/[C@H](CC(=O)O)NC(=O)[C@H](CCC(=O)O)NC(=O)c1ccc2ccccc2n1` [Compound 18, 2-Quinoline carbonyl-Glu-Asp methyl vinyl sulfone], the inhibition at 10 µM in assay [1] was 1%; in assay [2] it was 0%; in assay [3], 4%; in assay [4], 0%; in assay [5] it was 0%; in assay [6], 0%. Besides, the inhibition at 100 µM worked out at 1% in assay [1]; 0% in assay [2]; 2% in assay [3]; 9% in assay [4]; 7% in assay [5]; 0% in assay [6]. Further, the IC50 in assay [1], in assay [2], in assay [3], in assay [4], in assay [5] and in assay [6] was above 100 µM throughout.
Regarding `CC(C)(C)[C@H](NC(=O)c1ccc2ccccc2n1)C(=O)N1CC[C@@H]1C(=O)N[C@H](/C=C/S(C)(=O)=O)CC(=O)O` [Compound 20, 2-Quinoline carbonyl-t-Leu-(Azetidine-2-carbonyl)-Asp methyl vinyl sulfone], the inhibition at 10 µM in assay [1] was determined as 81%; in assay [2], 8%; in assay [3], 1%; in assay [4], 8%; in assay [5] it was 0%; in assay [6], 7%. The inhibition at 100 µM worked out at 99% in assay [1]; 23% in assay [2]; 5% in assay [3]; 44% in assay [4]; 0% in assay [5]; 6% in assay [6]. Moreover, the concentration for half-maximal inhibition (IC50) in assay [1] is 1.4 µM; in assay [2], above 100 µM; in assay [3], above 100 µM; in assay [4], above 100 µM; in assay [5], above 100 µM; in assay [6], above 100 µM.
Take `CC(C)(C)OC(=O)CC[C@H](NC(=O)OC(C)(C)C)C(=O)N[C@H](/C=C/S(C)(=O)=O)CC(=O)OC(C)(C)C` [Compound 21, Boc-Glu(O—tBu)-Asp (O—tBu)-methyl vinyl sulfone]: the inhibition at 10 µM in assay [1] amounted to 2%; in assay [2], 3%; in assay [3] it was 0%; in assay [4], 1%; in assay [5] it was 0%; in assay [6] it was 14%. Besides, the inhibition at 100 µM in assay [1] is 2%; in assay [2], 4%; in assay [3] it was 4%; in assay [4], 10%; in assay [5] it was 0%; in assay [6], 18%. In addition, the concentration for half-maximal inhibition (IC50) in assay [1], in assay [2], in assay [3], in assay [4], in assay [5] and in assay [6] was above 100 µM in each case.
For the compound `CS(=O)(=O)/C=C/[C@H](CC(=O)O)NC(=O)[C@@H](N)CCC(=O)O` [Compound 22, Glu-Asp methylsulfone], the inhibition at 10 µM in assay [1] turned out to be 0%; in assay [2], 3%; in assay [3], 0%; in assay [4], 2%; in assay [5], 0%; in assay [6], 12%. For the same compound, the inhibition at 100 µM is 0% in assay [1]; 7% in assay [2]; 0% in assay [3]; 0% in assay [4]; 0% in assay [5]; 13% in assay [6]. For the same compound, the IC50 in assay [1], in assay [2], in assay [3], in assay [4], in assay [5] and in assay [6] was above 100 µM throughout.
For the compound `CS(=O)(=O)/C=C/[C@H](CC(=O)O)NC(=O)[C@H]1CCC(=O)N1` [Compound 24, (2-Pyrrolidinone-5-carbonyl)-Asp methyl vinyl sulfone], the inhibition at 10 µM in assay [1] came out at 3%; in assay [2] it was 0%; in assay [3], 0%; in assay [4], 0%; in assay [5] it was 1%; in assay [6], 0%. Further, the inhibition at 100 µM in assay [1] stood at 10%; in assay [2] it was 0%; in assay [3], 0%; in assay [4], 0%; in assay [5], 0%; in assay [6], 0%. In addition, the IC50 in assay [1], in assay [2], in assay [3], in assay [4], in assay [5] and in assay [6] was above 100 µM each time.
